Measurements reported in patent publication US9426986B2, “Hyperbranched polycarbonates for solubilizing poorly soluble active substances” (BASF SE, priority 2009, dated 2016).
≈ marks a conversion by molar mass, not a printed value.

Tests used:
[1] = Solubilization experiments, general procedure 1 (active ingredient content by UV spectroscopy or HPLC); details: pH 7, aqueous buffer, thermodynamic from solid
Description: Approximately 2 g of polymer were weighed out into a 50 mL glass beaker. Then 0.2 g of each active ingredient was weighed into the batch to give a supersaturated solution. […] The mixture was then stirred at room temperature for 72 hours, using a magnetic stirrer. After a rest time of one hour, unsolubilized active ingredient was removed by filtration. The resulting clear or opaque solution was then analyzed for its active ingredient content by means of UV spectroscopy or HPLC.

[2] = Description: Approximately 100 mg of polymer were weighed out into a 50 mL glass beaker and dissolved in 9.900 g of distilled water. Then 100 mg of each active ingredient was weighed into the batch to give a supersaturated solution. The mixture was then stirred at room temperature for 24 hours, using a magnetic stirrer. After a rest time of one hour, unsolubilized active ingredient was removed by centrifuging. The resulting clear or opaque solution was then analyzed for its active ingredient content by means of UV spectroscopy.
The solubility was determined as described in procedure 2.

Solubility of Fipronil in the presence of polymer [2] [µg/mL] | Compound | solubility at 72 h [1] [µg/mL]
 | NC(=O)N1c2ccccc2C=Cc2ccccc21 [Carbamazepine] | 140 (≈ 593 µM)
 | Clc1ccccc1C(c1ccccc1)(c1ccccc1)n1ccnc1 [Clotrimazole] | < 100
 | CN1C(C(=O)Nc2ccccn2)=C(O)c2ccccc2S1(=O)=O [Piroxicam] | 420 (≈ 1270 µM)
6 | polyethylene glycol monomethyl ether [PEG monomethyl ether] | 
